Article PMC5899049 (ACS infectious diseases, 2017)
In brackets after ≈: the same amount, converted by molar mass. Read-outs that look alike come from different tables or passages of the source.

What was measured:
[1] = system: P. falciparum, Dd2 strain (MRA-150); details: read-out: P. falciparum growth inhibition IC50; Dd2 (MRA-150) strain; data reported previously; cited from earlier work
[2] = system: E. coli, strain BL21(DE3); test: E. coli growth inhibition assay; format: cell-based, Escherichia coli; details: for % E. coli growth inhibition (18 h): NI = no inhibition
[3] = biological target: Recombinant P. falciparum IspD (Plasmodium falciparum, UniProt Q8I273); test: Pf IspD enzymatic assay; format: biochemical; details: for PfIspD % inhibition at 1 μM (1000 nM): 1 μM (1000 nM) compound, 60 nM Pf IspD, NI = no inhibition; for IC50: read-out: PfIspD IC50, measured at 60 nM Pf IspD
[4] = system: Arabidopsis thaliania IspD; details: concentrations up to 10 μM; cited from earlier work
[5] = system: P. falciparum, Dd2 strain (MRA-150); test: P. falciparum growth inhibition; details: Plasmodium falciparum, DD2, 72 h, read-out: IC50 value at 72 h
[6] = system: E. coli, strain BL21(DE3); details: 500 μM; NI = no inhibition; data reported previously; cited from earlier work
Human IspD (hIspD) = biological target: T1, Human IspD (hIspD) (Homo sapiens, UniProt A4D126); test: Human IspD enzymatic assay; format: biochemical; details: 2 μM hIspD, 37 °C, 16 h
T1 sequence (A4D126 1-451): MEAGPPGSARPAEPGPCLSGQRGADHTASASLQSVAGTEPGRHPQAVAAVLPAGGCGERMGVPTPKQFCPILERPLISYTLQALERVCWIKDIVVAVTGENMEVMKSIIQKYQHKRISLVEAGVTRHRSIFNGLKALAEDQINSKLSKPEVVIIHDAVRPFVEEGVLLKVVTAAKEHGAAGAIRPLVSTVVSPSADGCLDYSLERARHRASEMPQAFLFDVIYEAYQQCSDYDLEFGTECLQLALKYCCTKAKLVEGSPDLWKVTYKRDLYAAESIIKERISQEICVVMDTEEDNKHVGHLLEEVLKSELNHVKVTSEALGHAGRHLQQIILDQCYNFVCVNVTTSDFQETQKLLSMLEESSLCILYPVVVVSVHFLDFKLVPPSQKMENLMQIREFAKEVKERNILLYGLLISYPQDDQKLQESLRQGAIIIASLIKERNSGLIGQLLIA

P. falciparum IspD = details: read-out: P. falciparum IspD Ki; cited from earlier work
[7] = system: Escherichia coli IspD (EcIspD); details: concentrations up to 10 μM; cited from earlier work
[8] = system: P. falciparum (Dd2 strain); test: Cytocidal; format: cell-based, Plasmodium falciparum; details: LC50 could not be determined
[9] = system: Mycobacterium tuberculosis IspD; details: concentrations up to 10 μM; cited from earlier work
[10] = system: MEP pathway intermediates (CDP-ME, MEcPP, IPP) in P. falciparum schizont stage parasites; test: MEP pathway metabolite profiling by LC-MS/MS; format: cell-based, Plasmodium falciparum; details: 1 μM 1a or 7a, 10 μM FOS; for Decrease in cellular levels of Pf IspD product CDP-ME: schizont stage; for Reduction of the IPP levels: 4 h treatment
[11] = system: MEP pathway metabolites in parasites starting at ring stage; details: 5 μM FOS for 10 h starting at ring stage; ref 24 (Zhang et al.); cited from earlier work

For `O=C(O)[C@H]1Cc2c([nH]c3ccccc23)[C@H](c2ccc(Cl)cc2Cl)N1` (single isomer, unassigned; ent-1a) [ent-1a], the IC50 [1] is listed as greater than 10000 nM and the “% E. coli growth inhibition (18 h)” value ([2]; 250 μM) is listed as “no effect”.

For `O=C(O)[C@H]1Cc2c([nH]c3ccccc23)[C@@H](c2ccc(Cl)cc2Cl)N1` (single isomer, unassigned; ent-5a) [ent-5a], the IC50 [1] is listed as 3000 ± 200 nM, the “% E. coli growth inhibition (18 h)” value ([2]; 250 μM) is listed as 18 ± 6 @ 250 μM % and the “PfIspD % inhibition at 1 μM (1000 nM)” value [3] is listed as 27 ± 5% inh. @ 1 μM.

For `O=C(O)[C@@H]1Cc2c([nH]c3ccccc23)[C@@H](c2ccc(Cl)cc2Cl)N1` [1a, (1R,3S)-MMV008138], the “Inhibition of Arabidopsis thaliania IspD” value [4] is listed as “did not inhibit”, the IC50 [5] is listed as 350 ± 30 nM and the IC50 [1] is listed as 250 ± 70 nM. The “% E. coli growth inhibition (18 h)” value [6] was “no effect”, the “Human IspD CDP-ribitol formation” value (Human IspD (hIspD); 20 μM 1a) was “not inhibited” and the “Human IspD CDP-ribitol formation” value (Human IspD (hIspD); 200 μM 1a) was “not inhibited”. The Ki (P. falciparum IspD) was 7 to 13 nM, the “Inhibition of Escherichia coli IspD” value [7] was “did not inhibit” and the “Parasite growth at 72 h after wash-out” value ([8]; 6 h incubation) was “grow similarly to untreated controls”. The “Parasite growth at 72 h after wash-out” value ([8]; 12 h incubation) was “grow similarly to untreated controls”, the “Inhibition of Mycobacterium tuberculosis IspD” value [9] was “did not inhibit” and the “Decrease in cellular levels of Pf IspD product CDP-ME” value (“Decrease in cellular levels” for short) ([10]; 2 h exposure) was 67 ± 2%. The “Decrease in cellular levels” value ([10]; 4 h exposure) was 84 ± 8% and the “Reduction of the IPP levels” value [10] was greater than 90%.

For `COc1ccc(C2NC(C(=O)O)Cc3c2[nH]c2ccccc32)cc1OC` (stereo not shown) [1x], the IC50 [1] is listed as greater than 20000 nM.

For `O=C(O)[C@@H]1Cc2c([nH]c3ccccc23)[C@H](c2ccc(Cl)cc2Cl)N1` [5a], the IC50 [1] is given as greater than 10000 nM and the “% E. coli growth inhibition (18 h)” value ([2]; 125 μM) is given as “no effect”.

With `CNC(=O)C1Cc2c([nH]c3ccccc23)C(c2ccc(Br)cc2Cl)N1` (stereo not shown) [7j] the IC50 [3] was 21 ± 6 nM.

With `CNC(=O)C1Cc2c([nH]c3ccccc23)C(c2ccc(Cl)cc2Br)N1` (stereo not shown) [7k] the IC50 [3] was 31 ± 4 nM.

For `CCNC(=O)C1Cc2c([nH]c3ccccc23)C(c2ccc(Cl)cc2Cl)N1` (stereo not shown) [8a], the IC50 [3] was roughly 1000 nM.

For `Clc1ccc(C2NCCc3c2[nH]c2ccccc32)c(Cl)c1` (stereo not shown) [11a], the “% E. coli growth inhibition (18 h)” value ([2]; 250 μM) was 45 ± 10 @ 250 μM % and the “PfIspD % inhibition at 1 μM (1000 nM)” value [3] was 7% inh. @ 1000.

For `O=CN(O)CCCP(=O)(O)O` [FOS, fosmidomycin, reference compound], the IC50 [1] is listed as 880 ± 70 nM, the MIC ([2]; Escherichia coli, 18 h, read-out: E. coli minimum inhibitory concentration (MIC)) is listed as 11.99 ± 0.02 µM (≈ 2.2 µg/mL) and the “Levels of CDP-ME” value [11] is listed as “reduced levels”. The inhibition at 10 µM ([3]; read-out: PfIspD % inhibition at 10 μM, 10 μM compound, 60 nM Pf IspD) was roughly 4%, the “Decrease in cellular levels” value ([10]; 2 h exposure) was “did not cause significant reduction” and the “Decrease in cellular levels” value ([10]; 4 h exposure) was “did not cause significant reduction”. The “Reduction of the IPP levels” value [10] was greater than 90%.
